Values of other authors, collected in patent US10517911B2, “Manufacturing methods, compositions, and medical applications of orally administered cannabis pharmaceuticals using representative/total/complete cannabis extractions (cannabis infused pills)” (priority 2016, dated 2019).

Columns and labels:
[1] = test system: methicillin-resistant Staphylococcus aureus (MRSA)
COX-1 = COX-1 (Homo sapiens, UniProt P23219)
COX-2 = target: T1, COX-2 (Homo sapiens, UniProt P35354)
T1 sequence (P35354 18-604): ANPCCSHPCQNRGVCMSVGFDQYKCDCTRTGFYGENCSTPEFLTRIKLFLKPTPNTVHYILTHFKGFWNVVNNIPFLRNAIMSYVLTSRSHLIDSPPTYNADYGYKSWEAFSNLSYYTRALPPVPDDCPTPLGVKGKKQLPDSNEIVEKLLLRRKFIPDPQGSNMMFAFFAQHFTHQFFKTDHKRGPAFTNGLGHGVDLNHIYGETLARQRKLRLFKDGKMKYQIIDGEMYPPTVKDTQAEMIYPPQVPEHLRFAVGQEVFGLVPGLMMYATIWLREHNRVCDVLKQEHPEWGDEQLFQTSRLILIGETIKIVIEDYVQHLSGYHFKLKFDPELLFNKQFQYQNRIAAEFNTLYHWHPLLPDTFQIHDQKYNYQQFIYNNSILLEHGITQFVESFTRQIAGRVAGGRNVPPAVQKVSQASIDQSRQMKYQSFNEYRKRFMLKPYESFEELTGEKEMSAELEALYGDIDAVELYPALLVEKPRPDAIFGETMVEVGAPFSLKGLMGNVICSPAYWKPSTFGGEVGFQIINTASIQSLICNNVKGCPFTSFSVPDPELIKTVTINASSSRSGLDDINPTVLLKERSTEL

Sequence of COX-1 (P23219 24-599): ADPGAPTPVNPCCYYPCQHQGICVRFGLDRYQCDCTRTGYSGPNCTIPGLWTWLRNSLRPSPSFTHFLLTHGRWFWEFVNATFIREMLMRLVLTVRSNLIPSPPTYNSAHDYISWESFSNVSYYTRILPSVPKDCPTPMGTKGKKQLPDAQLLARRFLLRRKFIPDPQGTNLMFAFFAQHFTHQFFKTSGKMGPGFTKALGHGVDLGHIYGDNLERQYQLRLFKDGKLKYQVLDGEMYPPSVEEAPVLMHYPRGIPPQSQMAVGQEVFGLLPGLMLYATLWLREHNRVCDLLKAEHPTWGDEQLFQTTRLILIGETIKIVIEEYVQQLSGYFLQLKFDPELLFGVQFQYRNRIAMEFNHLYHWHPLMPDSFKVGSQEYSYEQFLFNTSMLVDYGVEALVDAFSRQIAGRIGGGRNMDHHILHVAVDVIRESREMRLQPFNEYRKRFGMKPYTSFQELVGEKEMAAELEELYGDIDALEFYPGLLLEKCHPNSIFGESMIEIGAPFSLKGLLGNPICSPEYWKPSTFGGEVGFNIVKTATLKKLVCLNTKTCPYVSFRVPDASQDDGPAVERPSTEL

Compound | activity against methicillin-resistant Staphylococcus aureus (MRSA) [1] | COX-1 inhibition (COX-1) | anti-inflammatory effectiveness relative to aspirin (times as effective as aspirin) [times] | anti-inflammatory effectiveness relative to hydrocortisone (times as effective as hydrocortisone) [times] | COX-2 inhibition (COX-2)
C=C(C)[C@@H]1CCC(C)=C[C@H]1c1c(O)cc(CCCCC)cc1O [Cannabidiol] | powerful activity | – | – | – | –
CCCCCc1cc(O)c2c(c1)OC(C)(C)[C@@H]1CCC(C)=C[C@@H]21 [Tetrahydrocannabinol I, Tetrahydrocannabinol] | – | no COX-1 or COX-2 inhibition | 20 | 2 | no COX-1 or COX-2 inhibition
CCCCCc1cc(O)c2c(c1)OC(C)(C)c1ccc(C)cc1-2 [Cannabinol] | powerful activity | – | – | – | –
